These are literature values, as cited in patent US20050266079A1, “Process for making aqueous coated beadlets” (SmithKline Beecham Corporation, priority 1999, published 2005).

For the data set the following is noted: in vivo; cited from earlier work.

Regarding `CN[C@@H](C)[C@@H](O)c1ccccc1.Cl` [Pseudoephedrine HCl, (1S, 2S)-2-Methylamino-1-phenyl-1-propanol hydrochloride], the elimination half life is 5 to 8 h.
